{"source": "patent US6949558B2", "about": "“Enhancement of taxane-based chemotherapy by a CDK1 antagonist” (Yale University, priority 2001, dated 2005)", "key": {"HT2-19 cells": {"tested_on": "HT2-19 cells", "assay": "Apoptosis and cell cycle in HT2-19 cells with conditional inactivation of p34^cdc2", "assay_type": "cell-based", "settings": "taxol 0.2 μM", "excerpt": "Cell Cultures and Antibodies: Breast carcinoma MCF-7, prostate carcinoma PC3, and cervical carcinoma HeLa cells (American Type Culture Collection, Manassas, Va.) were maintained in culture according to the supplier's recommendations. HT2-19 cells with conditional inactivation of the p34^cdc2 gene were described previously (J. E. Itzhaki et al. (1997) Nat. Gen. 15: 258-265). In this cell line, removal of IPTG from the culture medium results in inactivation of the second p34^cdc2 allele (J. E. Itzhaki et al. (1997) Nat. Gen. 15: 258-265). For spindle checkpoint activation, the various cell types were treated with taxol (0.2-2 μM, Sigma Chemical Co., St. Louis, Mo.), vincristine (100 nM, Sigma) or cisplatin (3 μM, Sigma) for 16 h at 37° C. For genetic ablation of p34^cdc2, HT2-19 cells were washed and cultivated in the absence of IPTG for 48-72 h before analysis of apoptosis (see below) or expression of survivin or p34^cdc2, by Western blotting. In some experiments, taxol (0.2 μM) was added to HT2-19 cells simultaneously with the withdrawal of IPTG, and cells were processed as described above. […] For viral transduction, HT2-19 cells in the absence of IPTG were infected with pAd-GFP or pAd-Survivin at multiplicity of infection (m.o.i.) of 50, and analyzed after a 48-72 h culture for changes in cell cycle progression and apoptosis. […]"}, "[1]": {"tested_on": "p34^cdc2 kinase activity (MPM-2 epitope) in MCF-7 cells", "assay": "MPM-2 mitotic phosphoepitope expression (p34^cdc2 kinase activity) in MCF-7 cells", "assay_type": "cell-based, human", "description": "MPM-2 Mitotic Phosphoepitope Expression: For detection of mitotic phosphoproteins (D. D. Vandre et al. (1989) J. Cell Sci. 94: 245-58), MCF-7 cells (1-2×10^5 cells/60 mm dish) were treated with taxol (2 μM), adriamycin (100 nM), 50 or 300 J/m^2 UVB irradiation and cultured for 0, 8, 16, 24 or 36 h at 37° C. Cells were fixed in 70% ethanol, labeled with MPM-2 antibody (6 μg/ml) followed by addition of goat anti-mouse FITC (Boehringer Mannheim) for 1 h at 22° C. in the presence of 5 μg/ml propidium iodide (PI) containing 50 μg/ml RNase A. Samples were analyzed on a FACScan (Becton Dickinson, Mountain View, Calif.), using CellQuest software.\nMPM-2 Mitotic Phosphoepitope Expression: For detection of mitotic phosphoproteins (D. D. Vandre et al. (1989) J. Cell Sci. 94: 245-258), MCF-7 cells (1-2×10^5 cells/60 mm dish) were treated with taxol (0.2 μM), or vincristine (100 nM) for increasing time intervals (8-36 h) at 37° C. Cells were fixed in 70% ethanol, labeled with MPM-2 antibody (6 μg/ml; Upstate Biotechnology, Lake Placid, N.Y.) followed by addition of goat anti-mouse FITC (Boehringer Mannheim) for 1 h at 22° C. in the presence of 5 μg/ml propidium iodide containing 50 μg/ml RNAse A. Samples were analyzed on a FACScan (Becton Dickinson, Mountain View, Calif.), using CellQuest software. Data are expressed as %MPM-2 positive cells in the entire population."}, "[2]": {"tested_on": "survivin expression in MCF-7 cells", "assay": "Survivin expression by Western blotting in MCF-7 cells", "assay_type": "cell-based, human", "settings": "taxol 2 μM (FIG. 19A)"}, "[3]": {"tested_on": "survivin RNA in HeLa cells", "assay": "Northern hybridization of survivin RNA in HeLa cells", "assay_type": "cell-based, human", "settings": "presence or absence of taxol"}}, "data": [{"smiles": "CC(=O)O[C@H]1C(=O)[C@@]2(C)[C@H]([C@H](OC(=O)c3ccccc3)[C@]3(O)C[C@H](OC(=O)[C@H](O)[C@@H](NC(=O)c4ccccc4)c4ccccc4)C(C)=C1C3(C)C)[C@]1(OC(C)=O)CO[C@@H]1C[C@@H]2O", "note": "[taxol, Paclitaxel]", "values": [{"measurement": "cell cycle arrest", "setting": "HT2-19 cells; HT2-19, p34^cdc2 +/− (IPTG present)", "result": "homogeneous mitotic arrest"}, {"measurement": "apoptosis vs untreated IPTG− cultures", "setting": "HT2-19 cells; IPTG− HT2-19 cells (p34^cdc2 −/−)", "result": "considerably increased apoptosis"}, {"measurement": "MPM-2 expression", "setting": "[1]; taxol 2 μM (Example 7)", "result": "elevated MPM-2 expression"}, {"measurement": "p34^cdc2 kinase activity (MPM-2 phosphoepitope expression)", "setting": "[1]; taxol 0.2-2 μM (Example 8)", "result": "elevated p34^cdc2 kinase activity"}, {"measurement": "increased expression of survivin", "setting": "[2]", "result": "3-4 fold"}, {"measurement": "survivin RNA levels", "setting": "[3]", "result": "no significant changes in survivin RNA levels"}]}]}
